Laboratory results as given in patent publication US10961202B2, “Bis-benzimidazole compounds and methods of using the same” (THE SCRIPPS RESEARCH INSTITUTE, priority 2017, dated 2021).

Legend:
[1] = tested on: r(CUG)12-MBNL1 complex; experiment: Inhibition of the r(CUG)12-MBNL1 complex measured by TR-FRET; format: biochemical; details: 80 nM RNA, 60 nM MBNL1-His6
[2] = tested on: MBNL1 exon 5 inclusion in DM1 myotubes; experiment: Myotube splicing rescue assay (MBNL1 exon 5 inclusion); format: cell-based, human; details: 48-hour incubation

SMILES	IC50 ([1]; Table M) [µM]	IC50 ([1]; Table L) [µM]	MBNL1 % splicing rescue at 10 μM [2] [%]	MBNL1 % splicing rescue at 1 μM [2] [%]	MBNL1 % splicing rescue at 5 μM [2] [%]
COc1cc(-c2nc3ccc(OCCCN(C)C)cc3[nH]2)ccc1-c1nc2ccc(OCCCN(C)C)cc2[nH]1 [Compound 293]	18.2	–	71.0	–	–
COc1cc(-c2nc3ccc(SCCCN(C)C)cc3[nH]2)c(OC)cc1-c1nc2cc(SCCCN(C)C)ccc2[nH]1 [Compound 302, 3-((2-(4-(6-((3-(dimethylamino)propyl)thio)-1H-benzo[d]imidazol-2-yl)-2,5-dimethoxyphenyl)-1H-benzo[d]imidazol-5-yl)thio)-N,N-dimethylpropan-1-amine]	28	–	32.3	–	–
CC(C)N(CCNC(=O)c1ccc2nc(-c3ccc(-c4nc5ccc(C(=O)NCCN(C(C)C)C(C)C)cc5[nH]4)cc3)[nH]c2c1)C(C)C [Compound 34]	–	14.5	–	20.8	–
CN(C)CCCS(=O)(=O)c1ccc2[nH]c(-c3ccc(-c4nc5cc(S(=O)(=O)CCCN(C)C)ccc5[nH]4)cc3)nc2c1 [Compound 202, 3,3′-(2,2′-(1,4-phenylene)bis(1H-benzo[d]imidazole-6,6′-sulfonyl))bis(N,N-dimethylpropan-1-amine)]	42	–	34.0	–	–
c1ccc(COc2ccc(-c3nc4cc(-c5ccc6[nH]c(-c7ccc(OCc8ccccn8)cc7)nc6c5)ccc4[nH]3)cc2)nc1 [Compound 352]	25.8	–	9.6	3.1	–
CN1CCN(CCNC(=O)c2ccc3nc(-c4ccc(-c5nc6ccc(C(=O)NCCN7CCCCC7)cc6[nH]5)cc4)[nH]c3c2)CC1 [Compound 44, N-(2-(4-methylpiperazin-1-yl)ethyl)-2-(4-(6-((2-(piperidin-1-yl)ethyl)carbamoyl)-1H-benzo[d]imidazol-2-yl)phenyl)-1H-benzo[d]imidazole-6-carboxamide]	–	11.9	16.4	6.1	–
CN(C)CCCOc1ccc(-c2nc3cc(-c4ccc5[nH]c(-c6ccc(C(=O)NCCCn7cc(COCCOCCOCCOCCN(C)C(=O)c8ccc(-c9nc%10cc(-c%11ccc%12[nH]c(-c%13ccc(C(=O)NCCN(C)C)cc%13)nc%12c%11)ccc%10[nH]9)cc8)nn7)cc6)nc5c4)ccc3[nH]2)cc1 [Compound 459]	27.3	–	–	–	−2.6
COc1cc(-c2nc3ccc(C(=O)NCCCN(C)C)cc3[nH]2)c(OC)cc1-c1nc2cc(OCCCN(C)C)ccc2[nH]1 [Compound 299]	10.3	–	−34.9	–	–
c1cc(-c2nc3ccc(N4CCNCC4)cc3[nH]2)ccc1-c1nc2ccc(N3CCNCC3)cc2[nH]1 [Compound 150]	–	29.6	41.0	–	–
CN1CCC[C@H]1COc1ccc(-c2nc3cc(-c4ccc5[nH]c(-c6ccc(OC[C@@H]7CCCN7C)cc6)nc5c4)ccc3[nH]2)cc1 [Compound 356]	30.4	–	59.2	43.7	–
COCCOc1cc(-c2nc3ccc(OCCCN(C)C)cc3[nH]2)ccc1-c1nc2ccc(OCCCN(C)C)cc2[nH]1 [Compound 258, 3,3′-((2,2′-(2-(2-methoxyethoxy)-1,4-phenylene)bis(1H-benzo[d]imidazole-6,2-diyl))bis(oxy))bis(N,N-dimethylpropan-1-amine)]	31	–	10.0	–	–
CCN(CC)CCNC(=O)c1ccc(-c2nc3cc(-c4ccc5[nH]c(-c6ccc(C(=O)NCCN(CC)CC)cc6)nc5c4)ccc3[nH]2)cc1 [Compound 112]	–	5	66.5	–	–

More lines, in order of falling IC50 ([1]; Table M), values ahead:

IC50 ([1]; Table M) [µM]	IC50 ([1]; Table L) [µM]	SMILES	MBNL1 % splicing rescue at 10 μM [2] [%]	MBNL1 % splicing rescue at 1 μM [2] [%]	MBNL1 % splicing rescue at 5 μM [2] [%]
24.6	–	CN(C)CCCOc1ccc2nc(-c3ccc(-c4nc5ccc(OCCCN(C)C)cc5[nH]4)c(Cl)c3)[nH]c2c1 [Compound 257, 3,3′-((2,2′-(2-chloro-1,4-phenylene)bis(1H-benzo[d]imidazole-6,2-diyl))bis(oxy))bis(N,N-dimethylpropan-1-amine)]	92.1	–	–
22	–	O=C(NCCN1CCCCC1)c1ccc2nc(-c3ccc(-c4nc5ccc(C(=O)NCCN6CCCCC6)cc5[nH]4)c([N+](=O)[O-])c3)[nH]c2c1 [Compound 173, 2,2′-(2-nitro-1,4-phenylene)bis(N-(2-(piperidin-1-yl)ethyl)-1H-benzo[d]imidazole-6-carboxamide)]	23.1	1.5	–
20.5	–	CN(C)CCCOc1ccc(-c2nc3cc(-c4ccc5[nH]c(-c6ccc(C(=O)NCCCn7cc(COCCOCCN(C)C(=O)c8ccc(-c9nc%10cc(-c%11ccc%12[nH]c(-c%13ccc(C(=O)NCCN(C)C)cc%13)nc%12c%11)ccc%10[nH]9)cc8)nn7)cc6)nc5c4)ccc3[nH]2)cc1 [Compound 458]	–	–	−14.7
16.9	–	c1cc(-c2nc3cc(-c4ccc5[nH]c(-c6ccc(OCCN7CCCCC7)cc6)nc5c4)ccc3[nH]2)ccc1OCCN1CCCCC1 [Compound 350]	–	47.2	–
16.6	–	CN(C)CCCOc1ccc2nc(-c3ccc(-c4nc5ccc(OCCCN(C)C)cc5[nH]4)c(OCCN=[N+]=[N-])c3)[nH]c2c1 [Compound 265, 3,3′-((2,2′-(2-(2-azidoethoxy)-1,4-phenylene)bis(1H-benzo[d]imidazole-6,2-diyl))bis(oxy))bis(N,N-dimethylpropan-1-amine)]	84.3	–	–
16.4	–	NCCCOc1ccc2nc(-c3ccc(-c4nc5ccc(OCCCN)cc5[nH]4)cc3)[nH]c2c1 [Compound 201, 3,3′-((1,4-phenylenebis(1H-benzo[d]imidazole-2,6-diyl))bis(oxy))bis(propan-1-amine)]	−13.2	–	–
15.1	–	CN1CCC[C@H]1COc1ccc(-c2nc3cc(-c4ccc5[nH]c(-c6ccc(O)cc6)nc5c4)ccc3[nH]2)cc1 [Compound 357]	66.0	1.1	–
10.6	–	C#CCCCCN(C)CCNC(=O)c1ccc(-c2nc3cc(-c4ccc5[nH]c(-c6ccc(C(=O)NCCN(C)C)cc6)nc5c4)ccc3[nH]2)cc1 [Compound 401, N-(2-(dimethylamino)ethyl)-4-(2′-(4-((2-(hex-5-yn-1-yl(methyl)amino)ethyl)carbamoyl)phenyl)-1H,1′H-[5,5′-bibenzo[d]imidazol]-2-yl)benzamide]	–	–	−11.3
9.66	–	CN(C)CCCOc1ccc2nc(-c3ccc(-c4nc5ccc(NC6=NCCN6C6=NCCN6)cc5[nH]4)cc3)[nH]c2c1 [Compound 171]	7.8	11.5	–
6.03	–	CN(C)CCCOc1ccc2nc(-c3ccc(-c4nc5ccc(C(=O)NCCNC(=N)N)cc5[nH]4)cc3)[nH]c2c1 [Compound 264, 2-(4-(6-(3-(dimethylamino)propoxy)-1H-benzo[d]imidazol-2-yl)phenyl)-N-(2-guanidinoethyl)-1H-benzo[d]imidazole-6-carboxamide]	−23.5	–	–
5.3	–	CN(C)CCCCCCOc1ccc2nc(-c3ccc(-c4nc5ccc(OCCCCCCN(C)C)cc5[nH]4)cc3)[nH]c2c1 [Compound 212]	77.0	–	–
4.56	–	CN1CCC(NC(=O)c2ccc(-c3nc4cc(-c5ccc6[nH]c(-c7ccc(C(=O)NC8CCN(C)CC8)cc7)nc6c5)ccc4[nH]3)cc2)CC1 [Compound 338]	−5.3	7.8	–
